From US20250313572A1, “MACROCYCLIC MCL-1 INHIBITORS AND METHODS OF USE” (AbbVie Inc., priority 2017, published 2025) come the findings set out here.

One assay concerns the target GST-MCL-1 (Homo sapiens, UniProt Q07820). Briefly: TR-FRET MCL-1 binding assay (competition with probe F-Bak). Summed up: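 Displacement of F-Bak from GST-MCL-1 is detected by time-resolved FRET with a Tb-labelled anti-GST antibody, with excitation 340/35 nm and emission 520/525 and 495/510 nm, after 2 hours at room temperature. Compounds were titrated in 11 three-fold steps starting at 25 μM final, in buffer alone or in 10% HS.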
A general note: Time-resolved FRET reads energy transfer from a long-lived donor to a nearby acceptor.

For assay [1], the system named is AMO-1 human multiple myeloma tumor cell line. As to the kind of experiment: AMO-1 cell viability assay (CellTiter-Glo, 24 hours). The assay is classed as cell-based. The settings on record: Homo sapiens, AMO1, 24 h, read-out: AMO-1 Viability IC50 (μM, 10% FBS), 10% FBS, 24 hours of compound treatment. For orientation: Cellular ATP, detected with luciferase, serves as a proxy for viable cell number.

The test system of assay [2] is NCI-H929 human multiple myeloma tumor cell line. Briefly: NCI-H929 cell viability assay (CellTiter-Glo, 24 hours). The assay is classed as cell-based. The settings on record: Homo sapiens, NCI-H929, 24 h, read-out: H929 Viability IC50 (μM, 10% FBS), 10% FBS, 24 hours of compound treatment.
Experimental: Each concentration was tested in duplicate at least 3 independent times. A luminescent signal proportional to the number of viable cells following 24 hours of compound treatment was determined using the CellTiter-Glo® Luminescent Cell Viability Assay according to the manufacturer's recommendations (Promega Corp., Madison, WI). The plates were read in a Perkin Elmer Envision using a Luminescence protocol. To generate dose response curves the data is normalized to percent viability by setting the averages of the staurosporine (10 μM) and DMSO only control wells to 0% and 100% viability respectively.
Setting [3] is: MCL-1 Binding Ki (nM, 10% HS), in the presence of 10% HS (human serum).
The mark [4] stands for this setting: without HS, read-out: MCL-1 Binding Ki.

Where two headings read alike, the source gives them in different places.

Sequence of GST-MCL-1 (Q07820 whole entry): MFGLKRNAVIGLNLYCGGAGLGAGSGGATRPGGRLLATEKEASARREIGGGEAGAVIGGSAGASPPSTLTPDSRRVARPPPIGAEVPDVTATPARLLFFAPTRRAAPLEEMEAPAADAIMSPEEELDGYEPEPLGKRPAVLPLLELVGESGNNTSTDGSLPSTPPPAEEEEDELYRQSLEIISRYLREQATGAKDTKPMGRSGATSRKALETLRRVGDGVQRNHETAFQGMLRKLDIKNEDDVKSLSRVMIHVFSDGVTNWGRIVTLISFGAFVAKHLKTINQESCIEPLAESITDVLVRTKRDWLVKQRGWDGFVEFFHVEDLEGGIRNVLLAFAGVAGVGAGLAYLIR

For the compound `COCCOCCOCCOc1cccc(COc2ccc3cc2C[C@H](C(=O)O)Oc2ncnc4sc(-c5ccc(F)cc5)c(c24)-c2c(C)c(Cl)c(c(Cl)c2C)O[C@H](CN2CCN(C)CC2)CO3)c1` [Example 156, (7R,16R)-19,23-dichloro-1-(4-fluorophenyl)-10-[(3-{2-[2-(2-methoxyethoxy)ethoxy]ethoxy}phenyl)methoxy]-20,22-dimethyl-16-[(4-methylpiperazin-1-yl)methyl]-7,8,15,16-tetrahydro-18,21-etheno-13,9-(metheno)-6,14,17-trioxa-2-thia-3,5-diazacyclononadeca[1,2,3-cd]indene-7-carboxylic Acid], the inhibitory constant (Ki) is 23.6 nM on GST-MCL-1 (setting [3]) and 1.88 nM on GST-MCL-1 (setting [4]). Besides, the IC50 in assay [1] came out at 0.00453 µM; in assay [2], 0.0111 µM.
Regarding `Cc1c(Cl)c2c(Cl)c(C)c1-c1c(-c3ccc(F)cc3)sc3ncnc(c13)O[C@@H](C(=O)O)Cc1cc(ccc1OCc1ccnc(-c3ccc(OC[C@@H]4CN(C)CCO4)cc3)n1)OC[C@@H](CN1CCN(C)CC1)O2` [Example 157, (7R,16R)-19,23-dichloro-1-(4-fluorophenyl)-20,22-dimethyl-10-{[2-(4-{[(2S)-4-methylmorpholin-2-yl]methoxy}phenyl)pyrimidin-4-yl]methoxy}-16-[(4-methylpiperazin-1-yl)methyl]-7,8,15,16-tetrahydro-18,21-etheno-9,13-(metheno)-6,14,17-trioxa-2-thia-3,5-diazacyclononadeca[1,2,3-cd]indene-7-carboxylic Acid], the Ki at GST-MCL-1 (setting [3]) stood at 0.168 nM; at GST-MCL-1 (setting [4]) it was 0.008 nM. Also, the half-inhibitory concentration (IC50) was 0.000233 µM in assay [1] and 0.000821 µM in assay [2].
Take `Cc1c(Cl)c2c(Cl)c(C)c1-c1c(-c3ccc(F)cc3)sc3ncnc(c13)O[C@@H](C(=O)O)Cc1cc(ccc1OCc1ccnc(-c3ccc(OC[C@H]4CN(C)CCO4)cc3)n1)OC[C@@H](CN1CCN(C)CC1)O2` [Example 158, (7R,16R)-19,23-dichloro-1-(4-fluorophenyl)-20,22-dimethyl-10-{[2-(4-{[(2R)-4-methylmorpholin-2-yl]methoxy}phenyl)pyrimidin-4-yl]methoxy}-16-[(4-methylpiperazin-1-yl)methyl]-7,8,15,16-tetrahydro-18,21-etheno-9,13-(metheno)-6,14,17-trioxa-2-thia-3,5-diazacyclononadeca[1,2,3-cd]indene-7-carboxylic Acid]: the figures for the inhibition constant Ki on GST-MCL-1 (setting [3]) and on GST-MCL-1 (setting [4]) were 0.41 nM and 0.003 nM, respectively. Also, the half-maximal inhibitory concentration (IC50) in assay [1] was found to be 0.000258 µM; in assay [2] it was 0.00131 µM.
Consider `CO[C@@H]1CO[C@H]2[C@@H]1OC[C@H]2OCCOCCOc1ccc(-c2nccc(COc3ccc4cc3C[C@H](C(=O)O)Oc3ncnc5sc(-c6ccc(F)cc6)c(c35)-c3c(C)c(Cl)c(c(Cl)c3C)O[C@H](CN3CCN(C)CC3)CO4)n2)cc1` [Example 159, (7R,16R)-19,23-dichloro-1-(4-fluorophenyl)-10-[(2-{4-[2-(2-{[(3R,3aR,6R,6aR)-6-methoxyhexahydrofuro[3,2-b]furan-3-yl]oxy}ethoxy)ethoxy]phenyl}pyrimidin-4-yl)methoxy]-20,22-dimethyl-16-[(4-methylpiperazin-1-yl)methyl]-7,8,15,16-tetrahydro-18,21-etheno-13,9-(metheno)-6,14,17-trioxa-2-thia-3,5-diazacyclononadeca[1,2,3-cd]indene-7-carboxylic Acid], for which the values for the Ki at GST-MCL-1 (setting [3]) and on GST-MCL-1 (setting [4]) were 0.087 nM and 0.008 nM, respectively. Further, the IC50 turned out to be 0.000296 µM in assay [1] and 0.000379 µM in assay [2].
For `COCCOCCOC[C@H]1CC[C@H](c2nccc(COc3ccc4cc3C[C@H](C(=O)O)Oc3ncnc5sc(-c6ccc(F)cc6)c(c35)-c3c(C)c(Cl)c(c(Cl)c3C)O[C@H](CN3CCN(C)CC3)CO4)n2)CC1` [Example 160, (7R,16R)-19,23-dichloro-1-(4-fluorophenyl)-10-({2-[(1r,4r)-4-{[2-(2-methoxyethoxy)ethoxy]methyl}cyclohexyl]pyrimidin-4-yl}methoxy)-20,22-dimethyl-16-[(4-methylpiperazin-1-yl)methyl]-7,8,15,16-tetrahydro-18,21-etheno-13,9-(metheno)-6,14,17-trioxa-2-thia-3,5-diazacyclononadeca[1,2,3-cd]indene-7-carboxylic Acid], in that order: 0.083 nM, 0.005 nM, 0.000116 µM and 0.000206 µM.
For `Cc1c(Cl)c2c(Cl)c(C)c1-c1c(-c3ccc(F)cc3)sc3ncnc(c13)O[C@@H](C(=O)O)Cc1cc(ccc1OCc1ccnc(-c3ccc(O[C@H]4CO[C@H]5[C@@H]4OC[C@H]5O)cc3)n1)OC[C@@H](CN1CCN(C)CC1)O2` [Example 161, (7R,16R)-19,23-dichloro-1-(4-fluorophenyl)-10-{[2-(4-{[(3S,3aR,6R,6aR)-6-hydroxyhexahydrofuro[3,2-b]furan-3-yl]oxy}phenyl)pyrimidin-4-yl]methoxy}-20,22-dimethyl-16-[(4-methylpiperazin-1-yl)methyl]-7,8,15,16-tetrahydro-18,21-etheno-13,9-(metheno)-6,14,17-trioxa-2-thia-3,5-diazacyclononadeca[1,2,3-cd]indene-7-carboxylic Acid] the same measures were 0.141 nM, 0.002 nM, 0.000262 µM and 0.000502 µM.
For `COCCOCCOCCOc1ccc(COc2ccc3cc2C[C@H](C(=O)O)Oc2ncnc4sc(-c5ccc(F)cc5)c(c24)-c2c(C)c(Cl)c(c(Cl)c2C)O[C@H](CN2CCN(C)CC2)CO3)nc1` [Example 162, (7R,16R)-19,23-dichloro-1-(4-fluorophenyl)-10-[(5-{2-[2-(2-methoxyethoxy)ethoxy]ethoxy}pyridin-2-yl)methoxy]-20,22-dimethyl-16-[(4-methylpiperazin-1-yl)methyl]-7,8,15,16-tetrahydro-18,21-etheno-13,9-(metheno)-6,14,17-trioxa-2-thia-3,5-diazacyclononadeca[1,2,3-cd]indene-7-carboxylic Acid], in that order: 0.934 nM, 0.159 nM, 0.012 µM and 0.0143 µM.
On to `Cc1c(Cl)c2c(Cl)c(C)c1-c1c(-c3ccc(F)cc3)sc3ncnc(c13)O[C@@H](C(=O)O)Cc1cc(ccc1OCc1ccnc(-c3ccc(OC[C@H]4COCCN4C)cc3)n1)OC[C@@H](CN1CCN(C)CC1)O2` [Example 163, (7R,16R)-19,23-dichloro-1-(4-fluorophenyl)-20,22-dimethyl-10-{[2-(4-{[(3R)-4-methylmorpholin-3-yl]methoxy}phenyl)pyrimidin-4-yl]methoxy}-16-[(4-methylpiperazin-1-yl)methyl]-7,8,15,16-tetrahydro-18,21-etheno-9,13-(metheno)-6,14,17-trioxa-2-thia-3,5-diazacyclononadeca[1,2,3-cd]indene-7-carboxylic Acid], for which the inhibition constant (Ki) was 0.285 nM on GST-MCL-1 (setting [3]) and 0.013 nM at GST-MCL-1 (setting [4]). Further, the half-inhibitory concentration (IC50) in assay [1] turned out to be 0.000399 µM; in assay [2] it was 0.00134 µM.
For `Cc1c(Cl)c2c(Cl)c(C)c1-c1c(-c3ccc(F)cc3)sc3ncnc(c13)O[C@@H](C(=O)O)Cc1cc(ccc1OCc1ccnc(-c3ccc(OCCN4C[C@H]5COC[C@H]5C4)cc3)n1)OC[C@@H](CN1CCN(C)CC1)O2` [Example 164, (7R,16R)-19,23-dichloro-1-(4-fluorophenyl)-20,22-dimethyl-16-[(4-methylpiperazin-1-yl)methyl]-10-{[2-(4-{2-[(3aR,6aS)-tetrahydro-1H-furo[3,4-c]pyrrol-5 (3H)-yl]ethoxy}phenyl)pyrimidin-4-yl]methoxy}-7,8,15,16-tetrahydro-18,21-etheno-13,9-(metheno)-6,14,17-trioxa-2-thia-3,5-diazacyclononadeca[1,2,3-cd]indene-7-carboxylic Acid], in that order: 0.453 nM, 0.061 nM, 0.000416 µM and 0.00147 µM.
For `Cc1c(Cl)c2c(Cl)c(C)c1-c1c(-c3ccc(F)cc3)sc3ncnc(c13)O[C@@H](C(=O)O)Cc1cc(ccc1OCc1ccnc(-c3ccc(OCCN4CC5(COC5)C4)cc3)n1)OC[C@@H](CN1CCN(C)CC1)O2` [Example 165, (7R,16R)-19,23-dichloro-1-(4-fluorophenyl)-20,22-dimethyl-16-[(4-methylpiperazin-1-yl)methyl]-10-[(2-{4-[2-(2-oxa-6-azaspiro[3.3]heptan-6-yl)ethoxy]phenyl}pyrimidin-4-yl)methoxy]-7,8,15,16-tetrahydro-18,21-etheno-13,9-(metheno)-6,14,17-trioxa-2-thia-3,5-diazacyclononadeca[1,2,3-cd]indene-7-carboxylic Acid], in that order: 0.267 nM, 0.031 nM, 0.00353 µM and 0.00856 µM.
For `Cc1c(Cl)c2c(Cl)c(C)c1-c1c(-c3ccc(F)cc3)sc3ncnc(c13)O[C@@H](C(=O)O)Cc1cc(ccc1OCc1ccnc(-c3ccc(CCN4CC5COCC5C4)cc3)n1)OC[C@@H](CN1CCN(C)CC1)O2` (stereo partly drawn) [Example 166, (7R,16R)-19,23-dichloro-1-(4-fluorophenyl)-20,22-dimethyl-16-[(4-methylpiperazin-1-yl)methyl]-10-[(2-{4-[2-(tetrahydro-1H-furo[3,4-c]pyrrol-5 (3H)-yl)ethyl]phenyl}pyrimidin-4-yl)methoxy]-7,8,15,16-tetrahydro-18,21-etheno-9,13-(metheno)-6,14,17-trioxa-2-thia-3,5-diazacyclononadeca[1,2,3-cd]indene-7-carboxylic Acid] the same measures were 0.058 nM, 0.002 nM, 0.000927 µM and 0.0032 µM.

Usually Ki stands for a measure of affinity in units of concentration, obtained from inhibition or displacement. Broadly, the IC50 is the concentration that gives 50% inhibition.
